Values joined by “and” are separate entries in the source; they are usually repeats but may differ in a detail not shown here. Identical values can stand only once. Like-named read-outs stand apart in the source and are kept apart here.
Experiments:
[1] = test system: non-tumorous primary fibroblast cells; test: CellTiter-Glo luminescent cell viability assay, primary fibroblasts; settings: for Primer fibroblast Cell viability (% of controll): dose–response, individual replicates; for IC50: Homo sapiens, Fibroblast
[2] = as above; settings: human, primary skin fibroblasts (non-tumorous), Primer fibroblast Cell viability (% of controll), 72 h, dose–response, individual replicates
[3] = test system: PANC-1 cells; test: Colony formation (clonogenic) assay; assay type: cell-based, human; settings: 4 µM
[4] = test system: Fadu cells; test: CellTiter-Glo luminescent cell viability assay, Fadu
[5] = test system: HEK293T WT cells; test: CellTiter-Glo cell viability assay, HEK293T WT; settings: for HEK293T WT Cell viability (% of controll): dose–response, individual replicates
Method: (§1) Primary fibroblast cultures were prepared from human skin biopsies and maintained in DMEM supplemented with 10% FBS, 1% penicillin-streptomycin, and 1% MEM Non-Essential Amino Acids Solution (Thermo Fisher Scientific). […] All cell lines were cultured in a humidified atmosphere at 37 °C and 5% CO2, passaged twice a week, and the experiments were performed on cells between passage 5 and 15. The cell lines were routinely screened for the absence of mycoplasma infection (DAPI staining).
(§2) The effects of the synthesized compounds on cell viability were measured using the CellTiter-Glo® luminescent cell viability assay (Promega, Madison, WI, USA), according to the manufacturer’s instructions. Briefly, cells were seeded onto a flat-bottomed, white 96-well plate (BRANDplates, cat. no.: 781965)), with the following densities: PANC-1: 750 cells/well, Fadu: 2000 cells/well, primary fibroblasts: 2000 cells/well, HEK293T WT: 1000 cells/well, HEK293T CLPP^−/−: 2500 cells/well. After seeding, cells were incubated for a further 48 h before treatment. Cells were treated with the compounds for 72 h. Three concentrations (25.0 µM; 8.3 µM; 2.8 µM) were applied during the initial cell viability screening, while for the determination of dose–response curves, 1.5-fold serially diluted compound concentrations were applied (range: 26 µM–0.7 µM). After treatment, the luminescence signal was recorded using a microplate reader (BioTek Synergy 2 Multi-Mode Reader, BioTek, Winooski, VT, USA).
(§3) Data analysis was performed using GraphPad Prism 9.5.0 software (GraphPad Software, San Diego, CA, USA). […] The dose–response curves were generated by four-parameter nonlinear regression, and the IC50 values were determined as the means ± SEM of the best-fit values of 3 independent measurements. The R^2 values were consistently above 0.93, indicating a strong fit of the model to the experimental data (Supplementary S.89). […] Dunnett’s post hoc test was applied to adjust for multiple comparisons, minimizing the likelihood of false positive results. Assumptions for ANOVA, including normality (assessed via QQ plots) and homogeneity of variance (tested using the Brown–Forsythe test), were verified. The following significance levels were applied: * p < 0.05, ** p < 0.01, *** p < 0.001, **** p < 0.0001. […] The tumor selectivity of the compounds was quantitatively characterized by the selectivity index (SI). This parameter was calculated as the ratio of the average best-fit IC50 value for primary fibroblasts and the best-fit IC50 value for the corresponding tumor cells (PANC-1 or Fadu).

[6] = CellTiter-Glo cell viability assay, HEK293T WT; settings: human, HEK293T WT cells, HEK293T WT Cell viability (% of controll), 72 h, dose–response, individual replicates
Method: as §1, §2, §3

[7] = test system: PANC-1 cells; test: CellTiter-Glo luminescent cell viability assay, PANC-1
[8] = CellTiter-Glo cell viability assay, HEK293T CLPP−/− (ClpP dependence); settings: human, HEK293T CLPP−/− cells, HEK293T CLPP-/- Cell viability (% of controll), 72 h, dose–response, individual replicates;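 further: CellTiter-Glo luminescent signal read on a microplate reader once HEK293T CLPP−/− cells had been exposed to compounds for 72 h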
Method: as §1, §2, §3

[9] = test system: PANC-1 and Fadu cells; test: CellTiter-Glo viability, statements covering both cancer cell lines; assay type: cell-based, human; settings: 72 h dose–response
[10] = 0.7 μM, 72 h, dose–response, individual replicates
[11] = 1 μM, 72 h, dose–response, individual replicates
[12] = 1.5 μM, 72 h, dose–response, individual replicates
[13] = 2.3 μM, 72 h, dose–response, individual replicates
[14] = 3.4 μM, 72 h, dose–response, individual replicates
[15] = 5.1 μM, 72 h, dose–response, individual replicates
[16] = 7.7 μM, 72 h, dose–response, individual replicates
[17] = 17.3 μM, 72 h, dose–response, individual replicates
[18] = 26 μM, 72 h, dose–response, individual replicates

CNCC#Cc1cccc(CN2C(=O)C3=C(CCN(Cc4ccc(-n5cc(-c6ccccc6)nn5)cc4)C3)N3CCN=C23)c1 [38b]
Primer fibroblast Cell viability (% of controll) ([1]; 0.7 μM, 72 h): 107 % of controll and 109 % of controll | Primer fibroblast Cell viability (% of controll) ([1]; 1 μM, 72 h): 117 % of controll and 101 % of controll | Primer fibroblast Cell viability (% of controll) ([1]; 1.5 μM, 72 h): 118 % of controll | Primer fibroblast Cell viability (% of controll) ([1]; 2.3 μM, 72 h): 107 % of controll | Primer fibroblast Cell viability (% of controll) ([1]; 3.4 μM, 72 h): 110 % of controll and 101 % of controll | Primer fibroblast Cell viability (% of controll) ([1]; 5.1 μM, 72 h): 5 % of controll and 8 % of controll | Primer fibroblast Cell viability (% of controll) ([1]; 7.7 μM, 72 h): 0 % of controll | Primer fibroblast Cell viability (% of controll) ([1]; 17.3 μM, 72 h): 0 % of controll | Primer fibroblast Cell viability (% of controll) ([1]; 26 μM, 72 h): 0 % of controll | IC50 ([1]; 72 h, read-out: IC50 Value ± SEM Primary Fibroblast, 72 h treatment, best-fit values, n = 3): 4400 ± 230 nM | IC50 ([1]; read-out: Primary fibroblast IC50 values, Mean, mean of independently fitted replicate IC50 values (Supplement S.6), ONC201 value mathematically estimated from inflection point): 4450 nM | viability at 72 h, 0.7 µM ([2]; 0.7 μM): 103% | viability at 72 h, 1 µM ([2]; 1 μM): 112% | viability at 72 h, 1.5 µM ([2]; 1.5 μM): 106% | viability at 72 h, 2.3 µM ([2]; 2.3 μM): 116% | viability at 72 h, 3.4 µM ([2]; 3.4 μM): 112% | viability at 72 h, 5.1 µM ([2]; 5.1 μM): 6% | viability at 72 h, 7.7 µM ([2]; 7.7 μM): 0% | viability at 72 h, 17.3 µM ([2]; 17.3 μM): 0% | viability at 72 h, 26 µM ([2]; 26 μM): 0% | viable cells / colonies after shorter exposure ([3]; 24 h treatment followed by 5 days post-incubation): left only traces of viable cells | viable cells / colonies after longer exposure ([3]; 72 h treatment followed by 3 days post-incubation): no viable cells were discernible | Fadu Cell viability (% of controll) [4, 10]: 108 % of controll and 109 % of controll | Fadu Cell viability (% of controll) [4, 11]: 109 % of controll and 105 % of controll | Fadu Cell viability (% of controll) [4, 12]: 105 % of controll and 106 % of controll | Fadu Cell viability (% of controll) [4, 13]: 99 % of controll and 98 % of controll | Fadu Cell viability (% of controll) [4, 14]: 70 % of controll and 37 % of controll and 29 % of controll | Fadu Cell viability (% of controll) [4, 15]: 10 % of controll and 1 % of controll and 2 % of controll | Fadu Cell viability (% of controll) [4, 16]: 0 % of controll | Fadu Cell viability (% of controll) [4, 17]: 0 % of controll | Fadu Cell viability (% of controll) [4, 18]: 0 % of controll | viability at 2.8 µM ([4]; Homo sapiens, FaDu, 72 h, read-out: Cell Viability (% of Control) 2.8 µM, Fadu, 2.8 µM, 72 h, second-set screening, mean ± SD, n = 2): 91 ± 17% | viability at 8.3 µM ([4]; Homo sapiens, FaDu, 72 h, read-out: Cell Viability (% of Control) 8.3 µM, Fadu, 8.3 µM, 72 h, second-set screening, mean ± SD, n = 2): 0% | viability at 25 µM ([4]; Homo sapiens, FaDu, 72 h, read-out: Cell Viability (% of Control) 25 µM, Fadu, 25 µM, 72 h, second-set screening, mean ± SD, n = 2): 0% | viability at 0.7 µM ([4]; Homo sapiens, FaDu, 72 h, read-out: Fadu Cell viability (% of controll), 0.7 μM, 72 h, dose–response, individual replicates): 103% | viability at 1 µM ([4]; Homo sapiens, FaDu, 72 h, read-out: Fadu Cell viability (% of controll), 1 μM, 72 h, dose–response, individual replicates): 113% | viability at 1.5 µM ([4]; Homo sapiens, FaDu, 72 h, read-out: Fadu Cell viability (% of controll), 1.5 μM, 72 h, dose–response, individual replicates): 104% | viability at 2.3 µM ([4]; Homo sapiens, FaDu, 72 h, read-out: Fadu Cell viability (% of controll), 2.3 μM, 72 h, dose–response, individual replicates): 104% | viability at 7.7 µM ([4]; Homo sapiens, FaDu, 72 h, read-out: Fadu Cell viability (% of controll), 7.7 μM, 72 h, dose–response, individual replicates): 0% | viability at 17.3 µM ([4]; Homo sapiens, FaDu, 72 h, read-out: Fadu Cell viability (% of controll), 17.3 μM, 72 h, dose–response, individual replicates): 0% | viability at 26 µM ([4]; Homo sapiens, FaDu, 72 h, read-out: Fadu Cell viability (% of controll), 26 μM, 72 h, dose–response, individual replicates): 0% | IC50 ([4]; Homo sapiens, FaDu, 72 h, read-out: IC50 Value ± SEM Fadu, 72 h treatment, best-fit values, n = 3): 3300 ± 70 nM | Selectivity Index (SI) Fibroblast/Fadu ([4]; ratio of mean best-fit IC50 for primary fibroblasts and best-fit IC50 for Fadu): 1.3 | HEK293T WT Cell viability (% of controll) ([5]; 0.4 μM, 72 h): 116 % of controll and 117 % of controll and 121 % of controll | HEK293T WT Cell viability (% of controll) ([5]; 0.6 μM, 72 h): 110 % of controll and 120 % of controll and 116 % of controll | HEK293T WT Cell viability (% of controll) ([5]; 1.0 μM, 72 h): 110 % of controll and 102 % of controll | HEK293T WT Cell viability (% of controll) ([5]; 1.6 μM, 72 h): 66 % of controll and 67 % of controll and 83 % of controll | HEK293T WT Cell viability (% of controll) ([5]; 2.5 μM, 72 h): 6 % of controll and 15 % of controll and 12 % of controll (2×) | HEK293T WT Cell viability (% of controll) ([5]; 4.0 μM, 72 h): 0 % of controll | HEK293T WT Cell viability (% of controll) ([5]; 6.4 μM, 72 h): 0 % of controll | HEK293T WT Cell viability (% of controll) ([5]; 16.25 μM, 72 h): 0 % of controll | HEK293T WT Cell viability (% of controll) ([5]; 26 μM, 72 h): 0 % of controll | IC50 ([5]; Homo sapiens, HEK-293T, 72 h, read-out: IC50 (µM) HEK293T WT, 72 h treatment, ± SEM, best-fit values, n = 4): 1.7 ± 0.02 µM | IC50 ([5]; Homo sapiens, HEK-293T, read-out: HEK293T WT IC50 values, Mean, mean of independently fitted replicate IC50 values (Supplement S.6)): 1.67 µM | IC50 ([5]; Homo sapiens, HEK-293T, read-out: HEK293T WT IC50 values, individual replicates n1-n4, IC50 independently determined for each replicate measurement (Supplement S.6)): 1.61 µM | IC50 ([5]; read-out: HEK293T WT IC50 values, individual replicates n1-n4, IC50 independently determined for each replicate measurement (Supplement S.6)): 1.66 µM and 1.63 µM and 1.79 µM | viability at 72 h, 0.4 µM ([6]; 0.4 μM): 121% | viability at 72 h, 0.6 µM ([6]; 0.6 μM): 107% | viability at 72 h, 1 µM ([6]; 1.0 μM): 109% | viability at 72 h, 1.6 µM ([6]; 1.6 μM): 64% | viability at 72 h, 4 µM ([6]; 4.0 μM): 0% | viability at 72 h, 6.4 µM ([6]; 6.4 μM): 0% | viability at 72 h, 16.25 µM ([6]; 16.25 μM): 0% | viability at 72 h, 26 µM ([6]; 26 μM): 0% | PANC-1 Cell viability (% of controll) [7, 10]: 103 % of controll | PANC-1 Cell viability (% of controll) [7, 11]: 108 % of controll | PANC-1 Cell viability (% of controll) [7, 12]: 107 % of controll and 116 % of controll | PANC-1 Cell viability (% of controll) [7, 13]: 79 % of controll and 98 % of controll | PANC-1 Cell viability (% of controll) [7, 14]: 0 % of controll and 1 % of controll | PANC-1 Cell viability (% of controll) [7, 15]: 0 % of controll | PANC-1 Cell viability (% of controll) [7, 16]: 0 % of controll | PANC-1 Cell viability (% of controll) [7, 17]: 0 % of controll | PANC-1 Cell viability (% of controll) [7, 18]: 0 % of controll | viability at 2.8 µM ([7]; Homo sapiens, PANC-1, 72 h, read-out: Cell Viability (% of Control) 2.8 µM, PANC-1, 2.8 µM, 72 h, second-set screening, mean ± SD, n = 2): 6 ± 6% | viability at 8.3 µM ([7]; Homo sapiens, PANC-1, 72 h, read-out: Cell Viability (% of Control) 8.3 µM, PANC-1, 8.3 µM, 72 h, second-set screening, mean ± SD, n = 2): 0% | viability at 25 µM ([7]; Homo sapiens, PANC-1, 72 h, read-out: Cell Viability (% of Control) 25 µM, PANC-1, 25 µM, 72 h, second-set screening, mean ± SD, n = 2): 0% | IC50 ([7]; Homo sapiens, PANC-1, 72 h, read-out: IC50 Value ± SEM PANC-1, 72 h treatment, best-fit values, n = 3): 2500 ± 230 nM | viability at 0.7 µM ([7]; Homo sapiens, PANC-1, 72 h, read-out: PANC-1 Cell viability (% of controll), 0.7 μM, 72 h, dose–response, individual replicates): 110% | viability at 1 µM ([7]; Homo sapiens, PANC-1, 72 h, read-out: PANC-1 Cell viability (% of controll), 1 μM, 72 h, dose–response, individual replicates): 110% | viability at 1.5 µM ([7]; Homo sapiens, PANC-1, 72 h, read-out: PANC-1 Cell viability (% of controll), 1.5 μM, 72 h, dose–response, individual replicates): 109% | viability at 2.3 µM ([7]; Homo sapiens, PANC-1, 72 h, read-out: PANC-1 Cell viability (% of controll), 2.3 μM, 72 h, dose–response, individual replicates): 81% | viability at 5.1 µM ([7]; Homo sapiens, PANC-1, 72 h, read-out: PANC-1 Cell viability (% of controll), 5.1 μM, 72 h, dose–response, individual replicates): 0% | viability at 7.7 µM ([7]; Homo sapiens, PANC-1, 72 h, read-out: PANC-1 Cell viability (% of controll), 7.7 μM, 72 h, dose–response, individual replicates): 0% | viability at 17.3 µM ([7]; Homo sapiens, PANC-1, 72 h, read-out: PANC-1 Cell viability (% of controll), 17.3 μM, 72 h, dose–response, individual replicates): 0% | viability at 26 µM ([7]; Homo sapiens, PANC-1, 72 h, read-out: PANC-1 Cell viability (% of controll), 26 μM, 72 h, dose–response, individual replicates): 0% | IC50 ([7]; Homo sapiens, PANC-1, read-out: PANC-1 IC50 values, Mean, mean of independently fitted replicate IC50 values (Supplement S.6)): 2450 nM | Selectivity Index (SI) Fibroblast/PANC-1 ([7]; ratio of mean best-fit IC50 for primary fibroblasts and best-fit IC50 for PANC-1): 1.8 | viability at 72 h, 0.4 µM ([8]; 0.4 μM): 113% | viability at 72 h, 0.6 µM ([8]; 0.6 μM): 117% | viability at 72 h, 1 µM ([8]; 1.0 μM): 118% | viability at 72 h, 1.6 µM ([8]; 1.6 μM): 100% | viability at 72 h, 6.4 µM ([8]; 6.4 μM): 0% | viability at 72 h, 16.25 µM ([8]; 16.25 μM): 0% | viability at 72 h, 26 µM ([8]; 26 μM): 0% | concentration range of almost complete eradication of PANC-1 and Fadu cells with little to no cytotoxic effect toward fibroblasts [9]: 3000 to 4000 nM
